# Patent US20240228482A1, “COMPOUNDS, COMPOSITIONS AND METHODS OF TREATING CANCER” (HOTSPOT THERAPEUTICS, INC., priority 2021, published 2024)
# Target: T1, CBL-B (Homo sapiens, UniProt Q13191)
# T1 construct: GST
# Test: CBL-B TR-FRET IC50 screening (E1/E2 ubiquitination, Biotin-Ubiquitin, Anti GST-Tb donor / Streptavidin-d2 acceptor)
# Format: biochemical
# Conditions: CBL-B 10 nM final; 11-point titration from 100 uM; binned A-F; read-out: CBL-B TR-FRET activity IC50
# T1 sequence (Q13191 whole entry): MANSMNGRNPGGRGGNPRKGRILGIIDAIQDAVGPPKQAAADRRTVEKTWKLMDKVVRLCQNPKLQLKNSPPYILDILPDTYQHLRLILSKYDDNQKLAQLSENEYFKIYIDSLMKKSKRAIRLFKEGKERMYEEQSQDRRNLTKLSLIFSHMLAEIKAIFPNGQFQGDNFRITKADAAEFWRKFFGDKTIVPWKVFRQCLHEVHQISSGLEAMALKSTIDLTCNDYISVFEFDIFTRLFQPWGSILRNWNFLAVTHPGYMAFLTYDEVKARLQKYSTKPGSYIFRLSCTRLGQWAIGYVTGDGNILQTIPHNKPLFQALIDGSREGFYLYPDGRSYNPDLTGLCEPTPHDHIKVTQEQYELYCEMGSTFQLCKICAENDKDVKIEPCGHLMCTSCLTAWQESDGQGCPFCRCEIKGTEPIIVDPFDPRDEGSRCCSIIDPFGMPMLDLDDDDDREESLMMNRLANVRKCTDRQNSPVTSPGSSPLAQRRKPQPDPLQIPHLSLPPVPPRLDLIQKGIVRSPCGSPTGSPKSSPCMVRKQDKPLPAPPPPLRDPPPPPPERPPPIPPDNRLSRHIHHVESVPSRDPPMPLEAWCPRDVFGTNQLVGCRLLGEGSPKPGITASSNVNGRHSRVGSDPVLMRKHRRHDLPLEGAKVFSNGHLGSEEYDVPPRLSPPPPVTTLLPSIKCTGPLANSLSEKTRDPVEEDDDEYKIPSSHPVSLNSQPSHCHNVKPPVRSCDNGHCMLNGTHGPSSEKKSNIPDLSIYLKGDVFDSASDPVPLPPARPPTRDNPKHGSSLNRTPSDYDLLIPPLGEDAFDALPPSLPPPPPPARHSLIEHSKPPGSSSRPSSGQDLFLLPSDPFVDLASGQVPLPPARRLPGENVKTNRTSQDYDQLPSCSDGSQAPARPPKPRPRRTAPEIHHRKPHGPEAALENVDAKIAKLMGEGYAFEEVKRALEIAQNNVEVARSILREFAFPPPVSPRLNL
row,SMILES,IC50
1,"CC1CC(c2cccc(-n3cc4c(C(F)(F)F)cc(Br)cn4c3=O)c2)(c2nncn2C)C1 (single isomer, unassigned) [Compound 154]",< 100 nM
2,Cn1cnnc1CSc1cccc(-n2cc3c(C(F)(F)F)cccn3c2=O)c1 [Compound 149],> 10000 nM
3,"Cn1cnnc1[C@@H](c1cccc(-n2cc3c(C(F)(F)F)cc(CN4CC5(CC5)C4)cn3c2=O)c1)C1CCC1 (single isomer, unassigned) [Compound 165]",< 100 nM
4,C[C@H]1CCCN1Cc1cc(C(F)(F)F)c2cn(-c3cccc([C@H](c4nncn4C)C4CCC4)c3)c(=O)n2c1 [Compound 380_P2],< 100 nM
5,"C[C@H]1CCCN(Cc2cc(C(F)(F)F)c3cn(-c4cccc([C@H](c5nncs5)C5CCC5)c4)c(=O)n3c2)C1 (single isomer, unassigned) [Compound 202]",< 100 nM
6,Cn1cnnc1C1(c2cccc(-n3cc4c(C(F)(F)F)cc(CN5CC6(CC6)C5)cn4c3=O)c2)CC2(CC2)C1 [Compound 114],< 100 nM
7,C[C@H]1CCCN(C(=O)c2cc(C(F)(F)F)c3cn(-c4cccc([C@H](c5nncn5C)C5CCC5)c4)c(=O)n3c2)C1 [Compound 379],< 100 nM
8,"Cn1cnnc1[C@]1(c2cccc(-n3cc4c(C(F)(F)F)cc(CN5CCC6(CC6)C5)cn4c3=O)c2)C[C@@H](C)C1 (single isomer, unassigned) [Compound 215]",< 100 nM
9,Cc1c2c(C(F)(F)F)cccn2c(=O)n1-c1cccc(C(C)Cc2nncn2C)c1 (stereo not drawn) [Compound 27],> 10000 nM

# More lines, now with the values ahead:
row,IC50,SMILES
1,< 100 nM,C[C@@H](c1cc(C(F)(F)F)c2cn(-c3cccc(C4(Cc5nncn5C)COC4)c3)c(=O)n2c1)N1CCC(C)(F)CC1 [Compound 41]
2,1000 to 3000 nM,C[C@H]1CCCN(Cc2cc(C(F)(F)F)c3cn(-c4cccc(Cc5nncn5C)c4)c(=O)n3c2)C1 [Compound 294]
3,100 to 300 nM,C=Cc1cc(C(F)(F)F)c2cn(-c3cccc(C4(Cc5nncn5C)COC4)c3)c(=O)n2c1 [Compound 8]
4,< 100 nM,COC1(CNCc2cc(C(F)(F)F)c3cn(-c4cccc(C5(Cc6nncn6C)COC5)c4)c(=O)n3c2)CC1 [Compound 252]
5,100 to 300 nM,CN1CC2CCC(C1)N2c1cc(C(F)(F)F)c2cn(-c3cccc(C4(Cc5nncn5C)COC4)c3)c(=O)n2c1 [Compound 15]
6,100 to 300 nM,C[C@H]1CCCN(Cc2cc(C(F)(F)F)c3cn(-c4cccc(C5(c6nncn6C)CC6(CC6)C5)c4)c(=O)n3c2)C1 [Compound 74]
7,< 100 nM,CO[C@@H]1CCCN(Cc2cc(C(F)(F)F)c3cn(-c4cccc(C5(Cc6nncn6C)COC5)c4)c(=O)n3c2)C1 [Compound 124]
8,< 100 nM,Cn1cnnc1CC1(c2cccc(-n3cc4c(C(F)(F)F)cc(CN5CCCC[C@H](O)C5)cn4c3=O)c2)COC1 [Compound 166]

# Same assay, conditions: second part of Table 2 (head 'Patent Cmpd No / Updated Activity'); same CBL-B TR-FRET IC50 bins A-F; read-out: Updated Activity
row,SMILES,IC50
1,C[C@H]1CCCN(Cc2cc(C(F)(F)F)c3cn(-c4cccc([C@@H](c5nncn5C)C5CN(C)C5)c4)c(=O)n3c2)C1 [Compound 470_P2],> 10000 nM
2,"COCc1nc([C@@H](c2cccc(-n3cc4c(C(F)(F)F)cc(CN5CCC[C@H](C)C5)cn4c3=O)c2)C2CCC2)c(C)s1 (single isomer, unassigned) [Compound 385]",> 10000 nM
3,Cn1cnnc1C1(c2cccc(-n3cc4c(C(F)(F)F)cc(CN5CCC6(CC6)C5)cn4c3=O)c2)CCC1 [Compound 450],< 100 nM
4,"C[C@H]1CCCN(Cc2cc(C(F)(F)F)c3cn(-c4cccc([C@@H](c5nncn5C)[C@H]5C[C@@](C)(O)C5)c4)c(=O)n3c2)C1 (single isomer, unassigned) [Compound 577]",> 10000 nM

# More lines, now with the values ahead:
row,IC50,SMILES
1,> 10000 nM,"CO[C@]1(C)C[C@H]([C@@H](c2cccc(-n3cc4c(C(F)(F)F)cc(CN5CCC[C@H](C)C5)cn4c3=O)c2)c2nncn2C)C1 (single isomer, unassigned) [Compound 530]"
2,> 10000 nM,C[C@H]1CCCN(Cc2cc(C(F)(F)F)c3cn(-c4cccc([C@H](c5nncn5C)C5CNC5)c4)c(=O)n3c2)C1 [Compound 403]
3,< 100 nM,"COCCO[C@H]1CCCN(Cc2cc(C(F)(F)F)c3cn(-c4cccc([C@H](c5nncn5C)C5CCC5)c4)c(=O)n3c2)C1 (single isomer, unassigned) [Compound 518]"
